Measured values taken from ChEMBL document CHEMBL1201862, “PubChem BioAssay data set” (2004).
Activity calls are given as the source filed them.

Columns and labels:
Cytochrome P450 3A4 = Cytochrome P450 3A4 (Homo sapiens, UniProt P08684); conditions: Potency;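 further: confirmatory qHTS run detecting inhibitors and substrates of CYP3A4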
[1] = A cytotoxicity screen of small molecule inhibitors of the PhoP region in Salmonella typhi identified in the primary screen. [Related pubchem assays: 1850, 1864, 1985 ]; type: functional
Nonstructural protein 1 = Nonstructural protein 1 (Influenza A virus, UniProt Q194T2); type: functional, Influenza A virus (A/California/07/2009(H1N1))
[2] = NIH3T3 cell viability loss – ATP luminescence, mouse fibroblasts, counter-screen, dose response (AID 2010); type: functional, cell-based;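 further: cells exposed to compound for about 90 hours before reading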
[3] = Luminescence Cell-Based Dose Response HTS to Identify Inhibitors of 5'UTR Stem-Loop Driven Prion Protein mRNA Translation in H4 Neuroglioblastoma Cells. [Related pubchem assays: 1827 (Project Summary), 1813 (Primary HTS)]; type: functional
[4] = luciferase reporter signal suppression in cells – H4 neuroglioma cells, luminescence, dose response (AID 1990); type: functional, cell-based
[5] = Trypanosoma cruzi growth suppression in host cells – NIH3T3 host cells, beta-gal luminescence, confirmation (AID 2044); type: functional, cell-based;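 further: intracellular parasites grown in NIH/3T3 mouse fibroblasts as host cells; luminescent beta-galactosidase reporter signal from transgenic T. cruzi replicating inside host cells; inhibitors lower the luminescence signal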
[6] = alpha-synuclein stem-loop luciferase translation blockers – H4 neuroglioma cells, luminescence, confirmation (AID 1988); type: functional, cell-based
[7] = molecular target: T1, Apoptotic protease-activating factor 1 (Homo sapiens, UniProt O14727); type: functional
T1 sequence (O14727 whole entry): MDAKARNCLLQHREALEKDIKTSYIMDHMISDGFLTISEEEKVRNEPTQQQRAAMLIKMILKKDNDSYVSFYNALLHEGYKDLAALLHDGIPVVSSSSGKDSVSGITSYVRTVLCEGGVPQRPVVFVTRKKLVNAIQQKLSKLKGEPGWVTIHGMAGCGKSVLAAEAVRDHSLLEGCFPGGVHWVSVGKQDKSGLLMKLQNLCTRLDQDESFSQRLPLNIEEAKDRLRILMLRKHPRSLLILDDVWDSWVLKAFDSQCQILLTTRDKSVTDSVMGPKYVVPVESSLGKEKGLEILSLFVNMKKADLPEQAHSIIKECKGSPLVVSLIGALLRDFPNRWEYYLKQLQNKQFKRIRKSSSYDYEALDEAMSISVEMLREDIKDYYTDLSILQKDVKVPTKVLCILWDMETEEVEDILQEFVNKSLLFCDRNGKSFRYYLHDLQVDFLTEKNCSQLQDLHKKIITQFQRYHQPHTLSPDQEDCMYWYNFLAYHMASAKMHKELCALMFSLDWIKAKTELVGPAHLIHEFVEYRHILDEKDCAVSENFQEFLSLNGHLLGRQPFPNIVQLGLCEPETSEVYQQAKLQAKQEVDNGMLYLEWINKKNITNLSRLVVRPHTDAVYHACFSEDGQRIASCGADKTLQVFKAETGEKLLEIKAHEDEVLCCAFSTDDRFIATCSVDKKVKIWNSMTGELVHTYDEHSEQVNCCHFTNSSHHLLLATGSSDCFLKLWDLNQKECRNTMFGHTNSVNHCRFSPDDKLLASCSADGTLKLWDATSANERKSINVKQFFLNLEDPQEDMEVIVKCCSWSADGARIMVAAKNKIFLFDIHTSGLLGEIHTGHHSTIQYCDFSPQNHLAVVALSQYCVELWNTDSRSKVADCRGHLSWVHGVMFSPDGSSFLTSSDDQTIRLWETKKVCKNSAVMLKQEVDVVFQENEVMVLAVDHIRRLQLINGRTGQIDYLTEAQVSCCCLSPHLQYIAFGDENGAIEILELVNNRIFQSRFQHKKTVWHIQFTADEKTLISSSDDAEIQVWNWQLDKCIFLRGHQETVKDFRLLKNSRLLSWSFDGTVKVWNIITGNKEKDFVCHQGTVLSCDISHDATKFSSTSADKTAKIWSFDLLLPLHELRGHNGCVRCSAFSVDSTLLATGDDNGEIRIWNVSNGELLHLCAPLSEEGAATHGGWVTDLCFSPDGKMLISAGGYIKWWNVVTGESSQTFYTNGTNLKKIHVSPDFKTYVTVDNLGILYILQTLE

[8] = molecular target: T2, DNA repair protein RAD52 homolog (Homo sapiens, UniProt P43351); type: functional, biochemical
T2 sequence (P43351 whole entry): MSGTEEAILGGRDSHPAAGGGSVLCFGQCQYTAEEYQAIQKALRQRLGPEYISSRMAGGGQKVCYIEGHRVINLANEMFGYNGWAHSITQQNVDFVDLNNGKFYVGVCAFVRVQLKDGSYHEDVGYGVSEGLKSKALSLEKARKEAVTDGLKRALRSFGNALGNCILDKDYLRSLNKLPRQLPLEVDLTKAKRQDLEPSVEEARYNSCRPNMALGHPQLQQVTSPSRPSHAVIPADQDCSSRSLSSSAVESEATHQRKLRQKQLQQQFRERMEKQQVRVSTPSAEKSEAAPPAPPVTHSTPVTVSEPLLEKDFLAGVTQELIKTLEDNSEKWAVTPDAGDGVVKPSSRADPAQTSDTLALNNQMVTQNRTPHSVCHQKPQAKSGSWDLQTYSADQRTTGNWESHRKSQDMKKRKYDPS

cells [9] = type: functional
[10] = P. falciparum Dd2 growth inhibitors, dose response, SYBR Green, cherry-picked samples (AID 1159567); type: functional, cell-based
[11] = toxicity to human hepatoma HepG2 cells – cell-based, cherry-picked samples, cytotoxicity control, dose response (AID 1159577); type: functional
[12] = molecular target: Induced myeloid leukemia cell differentiation protein Mcl-1 (Homo sapiens, UniProt Q07820); type: functional
[13] = microbe, parasite or virus in culture; type: functional; conditions: Mycobacterium tuberculosis
Troponin, cardiac muscle = Troponin, cardiac muscle (Homo sapiens, UniProt P19429+P45379+P63316); assay: Fluorescence-based biochemical high throughput dose response assay for activators of the calcium sensitivity of cardiac Regulated Thin Filaments (RTF). [Related pubchem assays (depositor defined):AID493008, AID493018, AID504382, AID504383]; type: protein-complex assay
INS1 = assay: INS-1E survival protection against cytokine death – cell-based, luminescence, retest, dose response (AID 449756); type: functional; conditions: Rattus norvegicus;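 further: cell death triggered by IL-1 beta plus TNF-alpha plus IFN-gamma mixture; protective hits raise ATP signal compared with cytokine alone wells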
[14] = HepG2 cell cytotoxicity, dose response, cytotoxicity control for non-replicating M. tuberculosis project (AID 489018); type: functional; conditions: Mycobacterium tuberculosis
[15] = THP-1 cell cytotoxicity, dose response, cytotoxicity control for non-replicating M. tuberculosis project (AID 489025); type: functional
[16] = viability of HCT116 lacking mutant beta-catenin – cell-based, human colon tumor, dose response (AID 1045); type: functional;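 further: HCT116 colon tumor cells with beta catenin knocked out; cells exposed to compound for 60 hours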
[17] = Luminescence Cell-Based Dose Retest to Confirm Inhibitors of Cancer Stem Cells. [Related pubchem assays (depositor defined):AID2717, AID2721]; type: functional; conditions: Homo sapiens
[18] = Vero E6 cell cytotoxicity, dose response, cytotoxicity control for non-replicating M. tuberculosis project, secondary assay (AID 492998); type: functional, VeroE6; conditions: Vero C1008
[19] = viability of PTEN-deleted HCT116 cells – cell-based, HCT116 PTEN knockout, dose response (AID 1047); type: functional;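 further: HCT116 colon tumor cells with PTEN knocked out; cells exposed to compound for 60 hours before readout; potency for loss of cell viability measured by luminescence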
Large T antigen = Large T antigen (Simian virus 40, UniProt P03070); type: functional, Betapolyomavirus macacae;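 further: Confirmatory-stage PubChem screen for compounds that inhibit SV40 T antigen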
[20] = viability of uninfected HEp-2 cells – cell-based, HTS, cytotoxicity control for RSV inhibitor project, dose response (AID 2410); type: functional; conditions: human respiratory syncytial virus
cells [21] = assay: cells
[22] = molecular target: T3, RNA-binding protein pos-1 (Caenorhabditis elegans, UniProt G5EF15); assay: disruptors of C. elegans POS-1 RNA interaction – biochemical, fluorescence polarization, dose response (AID 1964);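 further: purified POS-1 fused to maltose binding protein made in E. coli; potency of compounds blocking POS-1 binding to fluorescent RNA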
T3 sequence (G5EF15 whole entry): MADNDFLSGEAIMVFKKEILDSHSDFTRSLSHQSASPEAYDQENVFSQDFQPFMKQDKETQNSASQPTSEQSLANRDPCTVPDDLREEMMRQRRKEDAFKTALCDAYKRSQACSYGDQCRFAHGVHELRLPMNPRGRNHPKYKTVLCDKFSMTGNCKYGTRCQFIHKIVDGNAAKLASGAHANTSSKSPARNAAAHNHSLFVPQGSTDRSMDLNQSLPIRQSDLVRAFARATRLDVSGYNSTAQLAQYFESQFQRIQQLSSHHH

[23] = molecular target: T4, Zinc finger protein mex-5 (Caenorhabditis elegans, UniProt Q9XUB2); assay: potency of MEX-5 RNA-binding blockers – biochemical, C. elegans, fluorescence polarization, dose response (AID 1960)
T4 sequence (Q9XUB2 whole entry): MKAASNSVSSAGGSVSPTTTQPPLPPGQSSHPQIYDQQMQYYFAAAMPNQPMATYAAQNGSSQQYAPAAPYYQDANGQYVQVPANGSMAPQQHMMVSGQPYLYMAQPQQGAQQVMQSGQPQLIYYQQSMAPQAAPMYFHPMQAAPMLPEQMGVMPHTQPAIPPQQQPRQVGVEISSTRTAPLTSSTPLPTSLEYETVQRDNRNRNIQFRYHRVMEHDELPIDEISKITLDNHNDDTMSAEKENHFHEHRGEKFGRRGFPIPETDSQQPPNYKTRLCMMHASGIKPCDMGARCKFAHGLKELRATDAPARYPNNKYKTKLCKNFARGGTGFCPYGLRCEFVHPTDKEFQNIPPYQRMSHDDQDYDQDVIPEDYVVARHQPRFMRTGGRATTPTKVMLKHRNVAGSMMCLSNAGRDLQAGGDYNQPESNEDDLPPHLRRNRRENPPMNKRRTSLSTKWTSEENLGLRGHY

Chain of Cytochrome P450 3A4 (P08684 whole entry): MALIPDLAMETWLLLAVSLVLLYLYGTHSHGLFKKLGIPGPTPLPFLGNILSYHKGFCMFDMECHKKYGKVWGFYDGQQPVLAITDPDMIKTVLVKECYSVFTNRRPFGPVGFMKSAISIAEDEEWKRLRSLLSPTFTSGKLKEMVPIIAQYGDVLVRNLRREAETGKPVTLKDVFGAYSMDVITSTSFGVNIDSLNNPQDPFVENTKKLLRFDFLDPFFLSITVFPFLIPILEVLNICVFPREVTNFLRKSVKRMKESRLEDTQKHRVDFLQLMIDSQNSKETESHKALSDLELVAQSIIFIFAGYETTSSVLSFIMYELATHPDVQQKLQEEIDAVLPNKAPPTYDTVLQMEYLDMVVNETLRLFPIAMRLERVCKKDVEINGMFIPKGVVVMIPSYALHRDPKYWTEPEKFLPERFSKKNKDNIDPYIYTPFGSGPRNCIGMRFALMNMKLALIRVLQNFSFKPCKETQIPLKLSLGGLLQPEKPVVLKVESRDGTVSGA
Chain of Nonstructural protein 1 (Q194T2 whole entry): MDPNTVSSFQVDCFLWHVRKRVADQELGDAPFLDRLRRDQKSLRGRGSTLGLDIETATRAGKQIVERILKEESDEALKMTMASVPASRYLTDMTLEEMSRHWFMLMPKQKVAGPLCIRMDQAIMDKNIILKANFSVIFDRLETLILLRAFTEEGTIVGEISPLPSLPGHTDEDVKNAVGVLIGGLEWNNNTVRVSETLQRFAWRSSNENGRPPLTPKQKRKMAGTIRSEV
Chain of Induced myeloid leukemia cell differentiation protein Mcl-1 (Q07820 whole entry): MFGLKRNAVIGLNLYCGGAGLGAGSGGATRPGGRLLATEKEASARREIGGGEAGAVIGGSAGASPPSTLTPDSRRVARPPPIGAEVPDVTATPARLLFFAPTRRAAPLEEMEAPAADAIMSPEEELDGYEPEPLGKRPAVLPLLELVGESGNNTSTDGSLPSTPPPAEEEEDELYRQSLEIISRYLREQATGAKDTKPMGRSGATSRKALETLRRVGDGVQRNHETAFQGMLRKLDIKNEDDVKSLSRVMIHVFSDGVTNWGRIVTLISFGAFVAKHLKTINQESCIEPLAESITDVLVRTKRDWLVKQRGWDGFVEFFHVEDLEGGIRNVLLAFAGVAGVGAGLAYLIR
Chain of Large T antigen (P03070 whole entry): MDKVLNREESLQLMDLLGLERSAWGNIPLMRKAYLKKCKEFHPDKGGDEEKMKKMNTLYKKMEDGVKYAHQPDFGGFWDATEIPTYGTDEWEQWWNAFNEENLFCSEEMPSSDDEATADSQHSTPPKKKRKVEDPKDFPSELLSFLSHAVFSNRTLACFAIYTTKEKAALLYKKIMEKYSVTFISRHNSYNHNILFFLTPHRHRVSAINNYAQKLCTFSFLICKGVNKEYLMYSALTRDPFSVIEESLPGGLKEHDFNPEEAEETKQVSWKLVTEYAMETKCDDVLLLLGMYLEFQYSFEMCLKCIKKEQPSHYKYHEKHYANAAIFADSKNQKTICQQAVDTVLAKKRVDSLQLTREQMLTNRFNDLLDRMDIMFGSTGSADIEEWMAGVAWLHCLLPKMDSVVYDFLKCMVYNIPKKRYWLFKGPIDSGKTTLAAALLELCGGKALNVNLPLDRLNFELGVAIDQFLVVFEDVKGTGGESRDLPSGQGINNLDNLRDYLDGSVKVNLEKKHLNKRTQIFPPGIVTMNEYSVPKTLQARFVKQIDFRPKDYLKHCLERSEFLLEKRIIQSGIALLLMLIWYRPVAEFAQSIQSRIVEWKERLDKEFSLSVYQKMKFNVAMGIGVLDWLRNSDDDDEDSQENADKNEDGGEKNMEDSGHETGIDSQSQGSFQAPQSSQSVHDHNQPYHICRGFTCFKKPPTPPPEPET

CN1C[C@@H](CO)C=C2c3cccc4[nH]cc(c34)CC21 (some centres undefined)
AC50 (Cytochrome P450 3A4): 31.6 µM (inconclusive)

O=[N+]([O-])c1cccc(NNS(=O)(=O)c2ccccc2F)c1
EC50 [1]: > 50 µM (active)

CC1CCN(C2=C(NS(=O)(=O)c3ccccc3)C(=O)c3ccccc3C2=O)CC1
IC50 (Nonstructural protein 1): 11.3 µM (active)

COCc1cc(CN2CCCC2)c(O)c2ncccc12
EC50 [2]: 4.17 µM (active) | EC50 [3]: 6.21 µM (active) | EC50 [4]: 11.4 µM (active) | EC50 [5]: 3.07 µM (active) | IC50 (Nonstructural protein 1): 2.31 µM (active) | EC50 [6]: 8.4 µM (active)

CC(C)CCC(C)N/C=C1/C(=O)N(Cc2ccccc2)C(=O)c2ccccc21 (centres undefined)
IC50 [7]: 7.34 µM (active)

COc1cccc(OCC(O)CN2CCC(CN3C(=O)c4cccc5cccc(c45)C3=O)CC2)c1 (centres undefined)
EC50 [2]: 9.64 µM (active) | EC50 [5]: 2.83 µM (active) | AC50 [8]: 10.6 µM (active)

Clc1cccc(/C=N\Nc2nccs2)c1
IC50 (cells [9]): 12.7 µM (active) | EC50 [1]: > 50 µM (active)

C[C@H]1CN([C@@H](C)CO)S(=O)(=O)c2ccc(C#Cc3ccc(F)cc3)cc2O[C@@H]1CN(C)C(=O)NC1CCCC1
AC50 [10]: 6.21 µM (active) | AC50 [11]: 25.6 µM (active)

COc1ccc(-c2oc3ccccc3c(=O)c2O)cc1
AC50 (Cytochrome P450 3A4): 3.98 µM (inconclusive)

Oc1ccc(N=Nc2cccc(Cl)c2)cc1/C=N/c1ccc(N2CCOCC2)cc1
IC50 [12]: 5.14 µM (not active)

c1cc2c3c(cccc3c1)NC1(CCC3(CC1)Nc1cccc4cccc(c14)N3)N2
IC50 [7]: 7.06 µM (active) | CC50 [13]: 20 µM (active)

OC(CN1CCCC1)Cn1ccc2ccccc21 (centres undefined)
AC50 [8]: 16.1 µM (active)

O=C(Nc1ccc(Cl)c(Cl)c1)Nc1ccc([N+](=O)[O-])cn1
EC50 (Troponin, cardiac muscle): > 71.5 µM (inactive)

Cc1sc(NC(=O)c2sc3nc4c(C)cccc4cc3c2N)c(C#N)c1C
IC50 [12]: 1.44 µM (active)

CCCOc1cc(NCc2ccccc2)c2ncn(C(C)C)c2c1
IC50 [7]: 5.67 µM (active) | AC50 (INS1): 8.46 µM (active)

COc1cc(CNC(C)(C)CO)cc(Br)c1OCc1ccc(Cl)cc1Cl
CC50 [14]: 12.5 µM (active) | CC50 [15]: 19.4 µM (active) | IC50 (cells [9]): 16.7 µM (active) | AC50 [8]: 18.5 µM (active) | EC50 [16]: 7.94 µM (active) | AC50 [17]: 5.33 µM (active) | CC50 [18]: 13.8 µM (active) | EC50 [19]: 7.38 µM (active)

CCCCCCC1=Cc2cc(OC)c(OC)cc2C(CC(=O)/C=C/OC)O1 (centres undefined)
AC50 (Cytochrome P450 3A4): 5.01 µM (inconclusive)

CCOc1ccc(NCc2cccn2-c2nnc(N3CCC(C(=O)NCCCN4CCCCC4C)CC3)s2)cc1 (centres undefined)
AC50 [8]: 19.6 µM (active) | IC50 (Large T antigen): 19.5 µM (active)

COC(=O)C1=C(C)N(Cc2ccco2)C(=O)N[C@H]1c1ccc(Br)cc1
CC50 [20]: 42.9 µM (active) | EC50 [1]: > 50 µM (active) | IC50 (cells [21]): 3.12 µM (active)

COc1cc(CNCCCN2CCOCC2)c(Br)cc1OCC(=O)Nc1ccccc1C
EC50 [1]: > 50 µM (active)

C[C@@H]1CN([C@@H](C)CO)C(=O)Cc2cc(NC(=O)Nc3ccccc3)ccc2O[C@H]1CN(C)Cc1ccc(-c2ccccc2)cc1
AC50 [10]: 1.87 µM (active) | AC50 [11]: 18.5 µM (active)

Cc1ccc(/C=C2\Oc3c(ccc(O)c3CN3CCN(CCO)CC3)C2=O)cc1
EC50 [22]: 36 µM (active) | EC50 (Troponin, cardiac muscle): 19.5 µM (inactive) | EC50 [23]: 73.9 µM (active)

CCOC(=O)N1CCC(=NNc2ccnc3cc(Cl)ccc23)CC1
EC50 [1]: > 50 µM (active)

N#CC(Cl)Cl
AC50 (Cytochrome P450 3A4): 31.6 µM (inconclusive)

COC(=O)CNC(=O)C1(C)C=CC2(CCCCC2)N1C(=O)OC (centres undefined)
AC50 (Cytochrome P450 3A4): 31.6 µM (inconclusive)
